We go through eight compounds from US9725449B2, “Tricyclic compounds as anticancer agents” (BRISTOL-MYERS SQUIBB COMPANY, priority 2015, dated 2017).

Bounds are passed on as bounds.

For this assay, the target named is BRD4 (Homo sapiens, UniProt O60885). Description: Time resolved fluorescence resonance energy transfer (TR-FRET) binding assay, bromodomain BRD4. The note with it: one of the FRET assays described; read-out: FRET BRD4 IC50. For orientation: In TR-FRET formats the signal depends on donor and acceptor labels being close together.
By IC50 is commonly meant the concentration needed to halve the response being measured. Take `Cc1nnn(C)c1-c1cnc2c3c(F)ncc(Cl)c3n([C@H](c3ccccc3)C3CCOCC3)c2c1` [Example 37, 10-Chloro-5-(dimethyl-1H-1,2,3-triazol-5-yl)-13-fluoro-8-[(S)-oxan-4-yl(phenyl)methyl]-3,8,12-triazatricyclo[7.4.0.0^2,^7]trideca-1(13),2(7),3,5,9,11-hexaene]: the IC50 was below 0.01 µM.

Turning to `[2H]C([2H])([2H])c1onc(C)c1-c1cnc2c3c(OC)ncc(S(C)(=O)=O)c3n([C@H](c3ccccc3)C3CCOCC3)c2c1` [Example 60, 10-Methanesulfonyl-13-methoxy-5-[5-(^2H3)methyl-3-methyl-1,2-oxazol-4-yl]-8-[(S)-oxan-4-yl(phenyl)methyl]-3,8,12-triazatricyclo[7.4.0.0^2,^7]trideca-1(13),2(7),3,5,9,11-hexaene], the IC50 is below 0.001 µM. Consider `[2H]C([2H])([2H])c1nnn(C)c1-c1cnc2c3ccc(N4CCN(CC(F)(F)F)CC4)nc3n([C@H](c3ccccc3)C3CCOCC3)c2c1` [Example 154, 5-[4-(^2H3)Methyl-1-methyl-1H-1,2,3-triazol-5-yl]-8-[(S)-oxan-4-yl(phenyl)methyl]-11-[4-(2,2,2-trifluoroethyl)piperazin-1-yl]-3,8,10-triazatricyclo[7.4.0.0^2,^7]trideca-1(9),2(7),3,5,10,12-hexaene], for which the IC50 was below 0.01 µM. In the case of `Cc1nnn(C)c1-c1cnc2c3ccc(N(C)C)nc3n([C@H](c3ccccc3)C3CCOCC3)c2c1` [Example 181, 5-(Dimethyl-1H-1,2,3-triazol-5-yl)-N,N-dimethyl-8-[(S)-oxan-4-yl(phenyl)methyl]-3,8,10-triazatricyclo[7.4.0.0^2,^7]trideca-1(9),2(7),3,5,10,12-hexaen-11-amine] it was below 0.001 µM.

As for `C=C(OCC)c1ccc2c3ncc(-c4c(C)nnn4C)cc3n([C@H](c3ccccc3)C3CCOCC3)c2n1` [Example 170, 5-(Dimethyl-1H-1,2,3-triazol-5-yl)-1-(1-ethoxyethenyl)-8-[(S)-oxan-4-yl(phenyl)methyl]-3,8,10-triazatricyclo[7.4.0.0^2,^7]trideca-1(9),2(7),3,5,10,12-hexaene], the IC50 was below 0.01 µM. As for `Cc1nnn(C)c1-c1cnc2c3ccnc(OCCN(C)C)c3n([C@H](c3ccccc3)C3CCOCC3)c2c1` [Example 10, (2-{[5-(Dimethyl-1H-1,2,3-triazol-5-yl)-8-[(S)-oxan-4-yl(phenyl)methyl]-3,8,11-triazatricyclo[7.4.0.0^2,^7]trideca-1(13),2(7),3,5,9,11-hexaen-10-yl]oxy}ethyl)dimethylamine], the figure is below 0.01 µM; as for `COc1ncc(S(C)(=O)=O)c2c1c1ncc(-c3c(C)nnn3C)cc1n2C(c1ccccc1)C1CCC(F)(F)CC1` (single isomer, unassigned) [Example 91, 8-[(4,4-Difluorocyclohexyl)(phenyl)methyl]-5-(dimethyl-1H-1,2,3-triazol-5-yl)-10-methanesulfonyl-13-methoxy-3,8,12-triazatricyclo[7.4.0.0^2,^7]trideca-1(13),2(7),3,5,9,11-hexaene], below 1.5 µM. As for `[2H]C([2H])([2H])c1nnn(C)c1-c1cnc2c3c(Cl)cnc(Cl)c3n([C@H](c3ccccc3)C3CCOCC3)c2c1` [Example 296, 10,13-Dichloro-5-[4-(^2H3)methyl-1-methyl-1H-1,2,3-triazol-5-yl]-8-[(S)-oxan-4-yl(phenyl)methyl]-3,8,11-triazatricyclo[7.4.0.0^2,^7]trideca-1(9),2(7),3,5,10,12-hexaene], the figure is below 0.001 µM.
